Results: PubChem BioAssay (NCI)
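Exposure lasted 48 hours, with cells grown in 96-well plates and compounds tested at five concentrations. TGI marks complete inhibition of growth.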

How the values were obtained:
Test in all cases: NCI tumour cell line growth inhibition, 48 h
[1] = tested on: 786-0 renal
[2] = tested on: A549 NSCLC
[3] = tested on: ACHN renal
[4] = tested on: CAKI-1 renal
[5] = tested on: CCRF-CEM leukemia
[6] = tested on: COLO 205 colon
[7] = tested on: DLD-1 colon
[8] = tested on: DMS 114 small cell lung
[9] = tested on: DMS 273 small cell lung
[10] = tested on: EKVX NSCLC
[11] = tested on: HCC-2998 colon
[12] = tested on: HCT-15 colon
[13] = tested on: HL-60(TB) leukemia
[14] = tested on: HOP-62 NSCLC
[15] = tested on: HOP-92 NSCLC
[16] = tested on: HT29 colon
[17] = tested on: IGROV1 ovarian
[18] = tested on: K-562 leukemia
[19] = tested on: KM12 colon
[20] = tested on: KM20L2 colon
[21] = tested on: LOX IMVI melanoma
[22] = tested on: LXFL 529 NSCLC
[23] = tested on: M14 melanoma
[24] = tested on: M19-MEL melanoma
[25] = tested on: MALME-3M melanoma
[26] = tested on: NCI-H226 lung
[27] = tested on: NCI-H23 lung
[28] = tested on: NCI-H460 lung
[29] = tested on: NCI-H522 lung
[30] = tested on: OVCAR-3 ovarian
[31] = tested on: OVCAR-4 ovarian
[32] = tested on: OVCAR-5 ovarian
[33] = tested on: OVCAR-8 ovarian
[34] = tested on: RPMI-8226 leukemia
[35] = tested on: RXF 393 renal
[36] = tested on: SF-268 CNS
[37] = tested on: SF-295 CNS
[38] = tested on: SF-539 CNS
[39] = tested on: SK-MEL-2 melanoma
[40] = tested on: SK-MEL-28 melanoma
[41] = tested on: SK-MEL-5 melanoma
[42] = tested on: SK-OV-3 ovarian
[43] = tested on: SN12C renal
[44] = tested on: SNB-19 CNS
[45] = tested on: SNB-75 CNS
[46] = tested on: SNB-78 CNS
[47] = tested on: SR leukemia
[48] = tested on: SW-620 colon
[49] = tested on: TK-10 renal
[50] = tested on: U251 CNS
[51] = tested on: UACC-257 melanoma
[52] = tested on: UACC-62 melanoma
[53] = tested on: UO-31 renal
[54] = tested on: XF 498 CNS
[55] = tested on: A498 renal
[56] = tested on: HCT-116 colon
[57] = tested on: HOP-18 NSCLC
[58] = tested on: MOLT-4 leukemia

**Q.** Which TGI [1] does the source give for `CC1CN(c2ccc(Cl)cc2)CC(C)OC(=O)O1` (centres undefined) here?
**A.** > 100 µM

**Q.** What about the TGI [2] of the same molecule?
**A.** > 100 µM

**Q.** And the TGI [3]?
**A.** > 100 µM

**Q.** What about the TGI [4] of the same molecule?
**A.** > 100 µM

**Q.** What about the TGI [5] of the same molecule?
**A.** > 100 µM

**Q.** What about the TGI [6] of the same molecule?
**A.** > 100 µM

**Q.** What about the TGI [7] of the same molecule?
**A.** > 100 µM

**Q.** And the TGI [8]?
**A.** > 100 µM

**Q.** And the TGI [9]?
**A.** > 100 µM

**Q.** What about the TGI [10] of the same molecule?
**A.** > 100 µM

**Q.** What about the TGI [11] of the same molecule?
**A.** > 100 µM

**Q.** And the TGI [12]?
**A.** > 100 µM

**Q.** And the TGI [13]?
**A.** > 100 µM

**Q.** What about the TGI [14] of the same molecule?
**A.** > 100 µM

**Q.** What about the TGI [15] of the same molecule?
**A.** > 100 µM

**Q.** What about the TGI [16] of the same molecule?
**A.** > 100 µM

**Q.** And the TGI [17]?
**A.** > 100 µM

**Q.** What about the TGI [18] of the same molecule?
**A.** > 100 µM

**Q.** And the TGI [19]?
**A.** > 100 µM

**Q.** And the TGI [20]?
**A.** > 100 µM

**Q.** What about the TGI [21] of the same molecule?
**A.** > 100 µM

**Q.** What about the TGI [22] of the same molecule?
**A.** > 100 µM

**Q.** What about the TGI [23] of the same molecule?
**A.** > 100 µM

**Q.** And the TGI [24]?
**A.** > 100 µM

**Q.** What about the TGI [25] of the same molecule?
**A.** > 100 µM

**Q.** And the TGI [26]?
**A.** > 100 µM

**Q.** What about the TGI [27] of the same molecule?
**A.** > 100 µM

**Q.** And the TGI [28]?
**A.** > 100 µM

**Q.** What about the TGI [29] of the same molecule?
**A.** > 100 µM

**Q.** And the TGI [30]?
**A.** > 100 µM

**Q.** What about the TGI [31] of the same molecule?
**A.** > 100 µM

**Q.** And the TGI [32]?
**A.** > 100 µM

**Q.** What about the TGI [33] of the same molecule?
**A.** > 100 µM

**Q.** What about the TGI [34] of the same molecule?
**A.** > 100 µM

**Q.** And the TGI [35]?
**A.** > 100 µM

**Q.** What about the TGI [36] of the same molecule?
**A.** > 100 µM

**Q.** What about the TGI [37] of the same molecule?
**A.** > 100 µM

**Q.** And the TGI [38]?
**A.** > 100 µM

**Q.** What about the TGI [39] of the same molecule?
**A.** > 100 µM

**Q.** And the TGI [40]?
**A.** > 100 µM

**Q.** And the TGI [41]?
**A.** > 100 µM

**Q.** What about the TGI [42] of the same molecule?
**A.** > 100 µM

**Q.** What about the TGI [43] of the same molecule?
**A.** > 100 µM

**Q.** And the TGI [44]?
**A.** > 100 µM

**Q.** What about the TGI [45] of the same molecule?
**A.** > 100 µM

**Q.** What about the TGI [46] of the same molecule?
**A.** > 100 µM

**Q.** And the TGI [47]?
**A.** > 100 µM

**Q.** What about the TGI [48] of the same molecule?
**A.** > 100 µM

**Q.** What about the TGI [49] of the same molecule?
**A.** > 100 µM

**Q.** What about the TGI [50] of the same molecule?
**A.** > 100 µM

**Q.** What about the TGI [51] of the same molecule?
**A.** > 100 µM

**Q.** And the TGI [52]?
**A.** > 100 µM

**Q.** And the TGI [53]?
**A.** > 100 µM

**Q.** What about the TGI [54] of the same molecule?
**A.** > 100 µM

**Q.** What does the source list for `CC(C)CCCC(C)[C@H]1CCC2[C@@H]3CCC4Nc5nocc5C[C@]4(C)C3CC[C@@]21C` (some centres undefined)?
**A.** TGI [1]: 25.9 µM; TGI [55]: 36.1 µM; TGI [2]: 54.8 µM; TGI [3]: 28.6 µM; TGI [4]: 29 µM; TGI [5]: 36.9 µM; TGI [6]: 20.4 µM; TGI [7]: 41 µM; TGI [9]: 37.3 µM; TGI [10]: 31.3 µM; TGI [11]: 29.5 µM; TGI [56]: 32.4 µM; TGI [12]: 30.3 µM; TGI [13]: 27.6 µM; TGI [57]: 34.7 µM; TGI [14]: > 100 µM; TGI [16]: 37.1 µM; TGI [17]: 57 µM; TGI [18]: 38.3 µM; TGI [19]: 38.4 µM; TGI [20]: 41.7 µM; TGI [21]: 4.95 µM; TGI [22]: 27.3 µM; TGI [23]: 41.8 µM; TGI [24]: 33.7 µM; TGI [25]: 40.2 µM; TGI [58]: 46.5 µM; TGI [26]: 37.3 µM; TGI [27]: 31.4 µM; TGI [28]: 47.1 µM; TGI [29]: 14.5 µM; TGI [30]: 20.5 µM; TGI [31]: 39.3 µM; TGI [33]: 35.9 µM; TGI [34]: 69.3 µM; TGI [35]: 28.5 µM; TGI [36]: 36.8 µM; TGI [37]: 34 µM; TGI [38]: 33.5 µM; TGI [39]: 38.7 µM; TGI [41]: 29.2 µM; TGI [42]: 34.8 µM; TGI [43]: 33.8 µM; TGI [44]: 37.5 µM; TGI [45]: 33.8 µM; TGI [46]: 42.1 µM; TGI [48]: 31.4 µM; TGI [49]: 21.1 µM; TGI [50]: 32 µM; TGI [51]: 39.5 µM; TGI [52]: 40.7 µM; TGI [53]: 27.9 µM

**Q.** What does the source list for `C=CCNC(=O)N(CCCC(NC(C)=O)C(=O)NCc1ccccc1)Cc1ccccc1` (centres undefined)?
**A.** TGI [1]: > 100 µM; TGI [55]: > 100 µM; TGI [2]: > 100 µM; TGI [3]: > 100 µM; TGI [4]: > 100 µM; TGI [5]: > 100 µM; TGI [6]: > 100 µM; TGI [8]: > 100 µM; TGI [9]: > 100 µM; TGI [10]: > 100 µM; TGI [12]: > 100 µM; TGI [13]: > 100 µM; TGI [57]: > 100 µM; TGI [14]: > 100 µM; TGI [15]: > 100 µM; TGI [16]: > 100 µM; TGI [17]: > 100 µM; TGI [18]: > 100 µM; TGI [19]: > 100 µM; TGI [20]: > 100 µM; TGI [21]: > 100 µM; TGI [22]: > 100 µM; TGI [23]: > 100 µM; TGI [24]: > 100 µM; TGI [25]: > 100 µM; TGI [58]: > 100 µM; TGI [26]: > 100 µM; TGI [27]: > 100 µM; TGI [28]: > 100 µM; TGI [29]: > 100 µM; TGI [30]: > 100 µM; TGI [31]: > 100 µM; TGI [32]: > 100 µM; TGI [33]: > 100 µM; TGI [34]: > 100 µM; TGI [35]: > 100 µM; TGI [36]: > 100 µM; TGI [37]: > 100 µM; TGI [38]: > 100 µM; TGI [39]: > 100 µM; TGI [40]: > 100 µM; TGI [41]: > 100 µM; TGI [42]: > 100 µM; TGI [43]: > 100 µM; TGI [44]: > 100 µM; TGI [45]: > 100 µM; TGI [48]: > 100 µM; TGI [49]: > 100 µM; TGI [50]: > 100 µM; TGI [51]: > 100 µM; TGI [52]: > 100 µM; TGI [53]: > 100 µM; TGI [54]: > 100 µM
